Results published in patent US20220409617A1, “Drug Formulations and Methods of Treatment for Metabolic Disorders” (The Regents of the University of California, priority 2019, published 2022).

Assays:
[1] = system: mouse embryonic fibroblasts (MEFs); assay: Ceramide-induced (C16:0 CER, C2-ceramide) mitochondrial fragmentation; assay type: cell-based
Description: (§1) 3T3-L1 cells were maintained in DMEM with 10% FBS and 1% penicillin-streptomycin until induced to differentiate. 3T3-L1 pre-adipocytes were differentiated as described in (M. P. Valley, et al., Anal. Biochem. 505: 43-50, 2016, the disclosure of which is incorporated herein by reference) with slight modifications. Briefly, pre-adipocytes were grown to confluence. After 2 d, cells were induced with maintenance media containing 500 μM IBMX (15879, Sigma-Aldrich, St. Louis, Mo.), 1 μM dexamethasone (D4902, Sigma-Aldrich), 5 μg/mL bovine insulin (10516, Sigma-Aldrich), and 5 μM troglitazone (50-115-0786, ApexBio). Media was changed every 2-3 d for 7 d. On day 7 post-induction, media was changed to maintenance media+5 μg/mL bovine insulin. On day 9 post-induction, media was changed to maintenance media. Mature adipocytes were used 12-14 d post-induction for all experiments. LSL-KrasG12D mouse embryonic fibroblasts (MEFs) with and without Cre-mediated deletion of the STOP cassette were obtained from David Tuveson (Cold Spring Harbor Laboratory, Cold Spring Harbor N.Y., USA) in 2000. p53^flox/flox MEFs were derived in house (2015) from C57BL/6 mice using standard techniques and immortalized by transient expression of Cre recombinase and deletion of p53. MEFs were cultured and maintained in DMEM with 10% FBS and 1% penicillin-streptomycin. A549 cells were cultured in DMEM with 10% FBS, 1% penicillin-streptomycin and 1% sodium pyruvate. Stock solution of palmitic acid (ACROS Organics, cat # AC129702500) was prepared at 100 mM in ethanol. Palmitate (250 μM) was conjugated to 1% (w/v) fatty-acid free bovine serum albumin (Sigma, A8806) in DMEM at 37° C. for 20 min. For all immunofluorescence assays, 8,000 MEFs were seeded into 8-chamber slides (Cellvis, cat # C8-1.5H-N) 12-16 h before treatment. Cells were pre-treated with sphingolipid-like compound 893 (5 μM in water), myriocin (10 μM in methanol), fumonisin-B1 (30 μM in DMSO), or celastrol (500 nM in DMSO) for 3 h followed by a 3 h treatment with BSA-conjugated palmitate mixture or BSA alone. Where cells were treated with C2-ceramide (50 μM in DMSO) or C16:0 ceramide (100 μM in ethanol) for 3 h, cells were pre-treated with sphingolipid-like compound 893 for 1-3 h as indicated, mdivi-1 (50 μM in DMSO) for 1 h or 24 h, M1 (5 μM in DMSO) for 24 h, mdivi-1 and M1 together for 24 h, leflunomide (50 μM in methanol) for 1 h or 24 h, or with P110 (1 μM in water) for 1 h or 12 h. LSL or KRAS^G12D MEFs were treated with sphingolipid-like compound 893 (5 μM) for 6 h prior to fixation.
MEFs were washed twice with PBS and fixed with 4% paraformaldehyde for 10 min at RT. Cells were permeabilized with 0.3% Triton X-100 in blocking buffer containing 10% fetal bovine serum for 20 min at 37° C. followed by overnight incubation with mouse anti-citrate synthase (sc-390693, Santa Cruz Biotechnology; dilution, 1:200) or rabbit-anti-DRP1 at 1:100 (#8570, Cell Signaling Technology) at 4° C. Cells were then washed twice with PBS and incubated with AlexaFluor 488 goat anti-mouse (A28175, Invitrogen) or AlexaFluor 594 donkey anti-rabbit (A32754, Invitrogen) secondary antibodies at RT followed by 5 min incubation with 1 μg/ml DAPI and 2 washes in PBS. For NADH autofluorescence studies, mice were gavaged with vehicle or 120 mg/kg sphingolipid-like compound 893 at ZT8.5 (4-10.5 h before sacrifice between ZT12.5 and ZT18). Post sacrifice, livers were excised, washed 3× with PBS, placed in DMEM supplemented with 10% FBS and 1% penicillin-streptomycin, and immediately imaged. NADH/NADPH autofluorescence was detected with 740 nm excitation and 450±50 nm detectors using a Mai Tai two-photon laser. Fluorescence microscopy was performed on a Zeiss LSM 780 confocal using a 63× oil objective with a […] numerical aperture (NA) or using a Nikon TE2000-S inverted epifluorescence microscope with a 100× oil objective (1.3 NA) and a Photometrics CoolSNAP ES2 monochrome CCD camera. […]

A549 lung cancer cells = assay: KRAS-mediated mitochondrial fission in A549 cells; assay type: cell-based, human; conditions: A549, oncogenic KRAS; 893 5 μM 1 h, leflunomide 50 μM 24 h
Description: as §1, with “Where cells were treated with C2-ceramide (50 μM in DMSO) or C16:0 ceramide (100 μM in ethanol) for 3 h, cells were pre-treated with sphingolipid-like compound 893 for 1-3 h as indicated, mdivi-1 (50 μM in DMSO) for 1 h or 24 h, M1 (5 μM in DMSO) for 24 h, mdivi-1 and M1 together for 24 h, leflunomide (50 μM in methanol) for 1 h or 24 h, or with P110 (1 μM in water) for 1 h or 12 h. LSL or KRAS^G12D MEFs were treated with sphingolipid-like compound 893 (5 μM) for 6 h prior to fixation.” left out
MEFs were washed twice with PBS and fixed with 4% paraformaldehyde for 10 min at RT. […] NADH/NADPH autofluorescence was detected with 740 nm excitation and 450±50 nm detectors using a Mai Tai two-photon laser. Fluorescence microscopy was performed on a Zeiss LSM 780 confocal using a 63× oil objective with a […] numerical aperture (NA) or using a Nikon TE2000-S inverted epifluorescence microscope with a 100× oil objective (1.3 NA) and a Photometrics CoolSNAP ES2 monochrome CCD camera. […]

[2] = mouse, in vivo; cited from earlier work

Cc1oncc1C(=O)Nc1ccc(C(F)(F)F)cc1 [leflunomide]
Protection from ceramide-induced mitochondrial fragmentation ([1]; MEFs, C16:0 CER 100 μM or C2-ceramide 50 μM 3 h, 893 5 μM, mdivi-1 50 μM, M1 5 μM, leflunomide 50 μM, P110 1 μM): blocked C16:0 ceramide-induced mitochondrial fragmentation after a 24 h, but not a 1 h, pre-incubation | Potency relative to compound 893 (less potent) ([1]; blocking ceramide-induced mitochondrial fragmentation in vitro): 10 fold | Reversal of mitochondrial fragmentation / tubularity in A549 cells (A549 lung cancer cells): did not reverse mitochondrial fragmentation in A549 lung cancer cells | Food intake and body weight in obese mice [2]: failed to reduce food intake or body weight in obese mice
